This passage reports Activity and Drug uptake results from ChEMBL document CHEMBL1153495, “A highly sensitive probe detecting low pH area of HeLa cells based on rhodamine B modified beta-cyclodextrins” (Bioorg Med Chem, 2009).

SMILES strings stand for the structures. The source made the active and inactive calls. The calls are words filed in the database; no cut-off is given here.

Series [1] relates to HeLa. In words: Cytotoxicity against human HeLa cells up to 1000 uM after 48 hrs by MTT assay. Type of series: functional, cell-based.
Series [2] concerns HeLa. As to the kind of experiment: Drug uptake in human HeLa cells assessed as staining capability after 5 hrs by fluorescence microscopy. Type of series: ADME, cell-based.
A further series concerns Jurkat. As to the kind of experiment: Cytotoxicity against human Jurkat cells at 1000 uM after 48 hrs by MTT assay. Type of series: functional, cell-based.

Turning to `NCCNC[C@H]1O[C@@H]2O[C@H]3[C@H](O)[C@@H](O)[C@@H](O[C@@H]4[C@@H](O)[C@H](O)[C@H](O[C@@H]5[C@@H](O)[C@H](O)[C@H](O[C@@H]6[C@@H](O)[C@H](O)[C@H](O[C@@H]7[C@@H](O)[C@H](O)[C@H](O[C@H]8[C@H](O)[C@@H](O)[C@@H](O[C@H]1[C@H](O)[C@H]2O)O[C@@H]8CO)O[C@H]7CO)O[C@H]6CO)O[C@H]5CO)O[C@H]4CO)O[C@@H]3CO`, the outcome in the series with HeLa [1] was inactive. Turning to `CCN(CC)c1ccc2c(-c3ccccc3C(=O)NCCNCCNCCNCCNC[C@H]3O[C@@H]4O[C@H]5[C@H](O)[C@@H](O)[C@@H](O[C@@H]6[C@@H](O)[C@H](O)[C@H](O[C@@H]7[C@@H](O)[C@H](O)[C@H](O[C@@H]8[C@@H](O)[C@H](O)[C@H](O[C@@H]9[C@@H](O)[C@H](O)[C@H](O[C@H]%10[C@H](O)[C@@H](O)[C@@H](O[C@H]3[C@H](O)[C@H]4O)O[C@@H]%10CO)O[C@H]9CO)O[C@H]8CO)O[C@H]7CO)O[C@H]6CO)O[C@@H]5CO)c3ccc(=[N+](CC)CC)cc-3oc2c1.[Cl-]`, the Drug uptake in the series with HeLa [2] is 66.6 µM. As for `NCCNCCNCCNCCNC[C@H]1O[C@@H]2O[C@H]3[C@H](O)[C@@H](O)[C@@H](O[C@@H]4[C@@H](O)[C@H](O)[C@H](O[C@@H]5[C@@H](O)[C@H](O)[C@H](O[C@@H]6[C@@H](O)[C@H](O)[C@H](O[C@@H]7[C@@H](O)[C@H](O)[C@H](O[C@H]8[C@H](O)[C@@H](O)[C@@H](O[C@H]1[C@H](O)[C@H]2O)O[C@@H]8CO)O[C@H]7CO)O[C@H]6CO)O[C@H]5CO)O[C@H]4CO)O[C@@H]3CO`, the outcome with Jurkat was Active. Further, the result with HeLa [1] was inactive. In the case of `OC[C@H]1O[C@@H]2O[C@H]3[C@H](O)[C@@H](O)[C@@H](O[C@H]4[C@H](O)[C@@H](O)[C@@H](O[C@H]5[C@H](O)[C@@H](O)[C@@H](O[C@H]6[C@H](O)[C@@H](O)[C@@H](O[C@H]7[C@H](O)[C@@H](O)[C@@H](O[C@H]8[C@H](O)[C@@H](O)[C@@H](O[C@H]1[C@H](O)[C@H]2O)O[C@@H]8CO)O[C@@H]7CO)O[C@@H]6CO)O[C@@H]5CO)O[C@@H]4CO)O[C@@H]3CO`, in the series with HeLa [1], the outcome was inactive.

In the case of `CCN(CC)c1ccc2c(-c3ccccc3C(=O)O)c3ccc(=[N+](CC)CC)cc-3oc2c1` [RHODAMINE B], in the series with HeLa [2], the Activity result is reported as “Not Active”.
